Consider 18 molecules from ChEMBL document CHEMBL4819103, “Discovery of selective fragment-sized immunoproteasome inhibitors” (Eur J Med Chem, 2021).

The target in data set [1] is T1, Proteasome subunit beta type-8 (Homo sapiens) (UniProt P28062).
T1 sequence (whole entry): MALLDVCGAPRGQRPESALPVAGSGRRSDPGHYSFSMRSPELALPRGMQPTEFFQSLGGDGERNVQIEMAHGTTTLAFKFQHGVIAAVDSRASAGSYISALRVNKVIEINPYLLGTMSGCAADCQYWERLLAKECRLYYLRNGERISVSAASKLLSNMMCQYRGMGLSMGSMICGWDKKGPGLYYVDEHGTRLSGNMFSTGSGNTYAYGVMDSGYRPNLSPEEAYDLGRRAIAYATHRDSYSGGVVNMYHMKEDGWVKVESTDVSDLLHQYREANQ
As to the kind of experiment: Inhibition of human chymotrypsin-like beta 5i subunit of iCP assessed as residual activity using suc-LLVY-AMC as flurogenic substrate at 10 uM for 90 mins by fluorescence-based assay.

The target of data set [2] is T1, Proteasome subunit beta type-8 (Homo sapiens). As to the kind of experiment: Inhibition of human chymotrypsin-like beta 5i subunit of iCP assessed as residual activity using suc-LLVY-AMC as flurogenic substrate at 100 uM for 90 mins by fluorescence-based assay.
A short description of data set [3]: Solubility of the compound in buffer. The format is physicochemical.
The target in data set [4] is T1, Proteasome subunit beta type-8 (Homo sapiens). As to the kind of experiment: Inhibition of human chymotrypsin-like beta 5i subunit of iCP assessed as residual activity using suc-LLVY-AMC as flurogenic substrate at 150 uM for 90 mins by fluorescence-based assay.
The nature of data set [5]: Solubility of the compound in DMSO. The format is physicochemical.
For data set [6], the species on record is Homo sapiens. As to the kind of experiment: Selectivity ratio of IC50 for human beta2i subunit of iCP Pto IC50 for human chymotrypsin-like beta 5i subunit of iCP.
For data set [7], the species on record is Homo sapiens. Kind of data set: Selectivity ratio of IC50 for human beta1i subunit of iCP Pto IC50 for human chymotrypsin-like beta 5i subunit of iCP.
The species entered for data set [8] is Homo sapiens. As to the kind of experiment: Selectivity ratio of IC50 for human beta2 subunit of cCP Pto IC50 for human chymotrypsin-like beta 5i subunit of iCP.
The target of data set [9] is T2, Proteasome Macropain subunit MB1 (Homo sapiens, UniProt P28074).
T2 sequence (P28074 whole entry): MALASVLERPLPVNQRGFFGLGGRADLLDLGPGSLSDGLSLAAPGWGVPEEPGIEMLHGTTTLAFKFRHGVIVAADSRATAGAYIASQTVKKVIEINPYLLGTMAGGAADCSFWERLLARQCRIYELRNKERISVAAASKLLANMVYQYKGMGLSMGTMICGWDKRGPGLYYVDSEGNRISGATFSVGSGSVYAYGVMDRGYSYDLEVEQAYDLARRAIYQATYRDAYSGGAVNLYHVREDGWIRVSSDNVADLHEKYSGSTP
As to the kind of experiment: Inhibition of beta 5 chymotrypsin-like activity (unknown origin) using Suc-LLVY-AMC as substrate for 90 mins by fluorescence based assay.

Data set [10] addresses T3, Proteasome subunit beta type-8 (Homo sapiens, UniProt P28062).
T3 sequence (P28062 whole entry): T1 sequence (whole entry)
As to the kind of experiment: Inhibition of human chymotrypsin-like beta 5i subunit of iCP using suc-LLVY-AMC as flurogenic substrate for 90 mins by fluorescence-based assay.

Data set [11] can be described thus: Thiol reactivity of the compound assessed as TNB2-depletion at 200 uM measured upto 24 hrs by TNB2-depletion assay. It counts as physicochemical.
For data set [12], the target named is T4, Proteasome Macropain subunit MB1 (Homo sapiens) (UniProt P28074).
T4 sequence (whole entry): T2 sequence (P28074 whole entry)
Kind of data set: Inhibition of beta 5 chymotrypsin-like activity (unknown origin) at 100 uM using Suc-LLVY-AMC as substrate for 90 mins by fluorescence based assay. Also on record: scale not given: the % may be the effect or the level left.

Data set [13] in a line: Glutathione reactivity of compound at pH 8 measured by HPLC-MS assay. It counts as physicochemical.
Data set [14] in a line: Glutathione reactivity of compound at pH 8.5 measured by HPLC-MS assay. The format is physicochemical.
Data set [15] is described as follows: Glutathione reactivity of compound at pH 9 measured by HPLC-MS assay. The format is physicochemical.
Data set [16] is described as follows: Glutathione reactivity of compound at pH 7.5 measured by HPLC-MS assay. It counts as physicochemical.
Data set [17] deals with T1, Proteasome subunit beta type-8 (Homo sapiens). Kind of data set: Inhibition of human chymotrypsin-like beta 5i subunit of iCP assessed as cysteine-48 labelling by Ellman's method. (In general: DTNB colorimetry detects thiols as they appear.)

Active and inactive are the calls of the source. No cut-off for these calls is given here.

Regarding `COc1ccc2[nH]c(S)nc2c1`, the Activity in [1] came out at 97%.
Regarding `Nc1ccc2[nH]c(S)nc2c1`, the Activity in data set [1] worked out at 49%.
Take `Cc1ccc2nc(S)sc2c1`: the Activity in data set [2] worked out at 55%. For the same molecule, the solubility entry in data set [3] is “Insoluble”.
Take `Cn1c(=S)[nH]c2c(Cl)cccc21`: the Activity in data set [4] was 50%.
Regarding `O=C(CCc1cccnc1)Nc1cccc2[nH]c(=S)oc12`, in [5], the solubility result is reported as “Insoluble”.
For the molecule `O=S(=O)(F)c1nc2ccccc2s1`, the Ratio IC50 in the data set listed under Homo sapiens [6], in the data set listed under Homo sapiens [7] and in the data set filed under Homo sapiens [8] was 7 each time. The results for the 50% inhibitory concentration (IC50) in data set [9] and in data set [10] were 81 µM and 11 µM, respectively.
On to `N#Cc1nc2cccc(Cl)c2o1`, for which the IC50 was 93 µM in data set [9] and 10 µM in data set [10].
Take `CCOc1ccc2[nH]c(S)nc2c1`: the Activity is 80% in data set [1] and 95% in [12]. Also, the Drug metabolism entry in data set [11] is listed as “Metabolite_Notdetected”.
In the case of `Cc1ccc2[nH]c(=S)[nH]c2c1`, in data set [1], the Activity amounted to 95%.
For `Cn1c(=S)[nH]c2cccc(Cl)c21`, the Drug metabolism entry in data set [13] was “Metabolite_Notdetected”; in [14], “Metabolite_Notdetected”; in data set [11], “Metabolite_Detected”; in data set [15], “Metabolite_Notdetected”; in data set [16], “Metabolite_Notdetected”. Further, in data set [12], the Activity was 99%. In [10], the midpoint of inhibition, the IC50, lay at 1.8 µM.
Turning to `Cn1c(=S)[nH]c2ccc(NC(=O)c3ccccc3)cc21`, the Activity in data set [2] came out at 39%. For the same molecule, the solubility result in data set [3] is recorded as “Insoluble”.
Turning to `CC(=O)Nc1ccc2[nH]c(=S)[nH]c2c1`, in data set [1], the Activity was 57%.
For `Sc1nc2ccc(Cl)cc2s1`, in data set [5], the solubility result is reported as “Insoluble”.
Take `S=c1[nH]c2cccc(Cl)c2o1`: the Drug metabolism entry in [13] is “Metabolite_Notdetected”; in [14], “Metabolite_Notdetected”; in [11] it was “Metabolite_Detected”; in [15], “Metabolite_Notdetected”; in data set [16], “Metabolite_Notdetected”. In addition, in data set [12], the Activity was 94%. The molecule also displayed a half-inhibitory concentration (IC50) in data set [10] of 16 µM.
As to `Cn1c(S)nc2cc(Cl)ccc21`, the Drug metabolism result in data set [13], in data set [14], in data set [11], in data set [15] and in data set [16] was “Metabolite_Notdetected” each time. Also, the values for the Activity in data set [12] and in data set [4] were 100% and 80%, respectively.
In the case of `S=c1[nH]c2cccc(Cl)c2s1`, the Drug metabolism result is on record as “Metabolite_Notdetected” in data set [13]; “Metabolite_Notdetected” in data set [14]; “Metabolite_Detected” in data set [11]; “Metabolite_Notdetected” in [15]; “Metabolite_Notdetected” in data set [16]. In addition, the Activity in data set [12] was 59%. In [10], the IC50 stood at 9.7 µM.
Regarding `N#Cc1nc2ccc(Cl)cc2o1`, in data set [17], the inhibition entry is “Active”. The figures for the IC50 in [9] and in [10] were 45 µM and 9.1 µM, respectively.
With `Cc1cccc2[nH]c(=S)[nH]c12`, the Activity in data set [1] was 84%.

As usually defined, the IC50 is the concentration that gives 50% inhibition.
